PubChem BioAssay (NCI)
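Results reflect a 48-hour exposure of cells in 96-well plates to compound at five concentrations. GI50: concentration for 50% inhibition of growth. TGI: total growth inhibition.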

Tests used:
Assay in all cases: NCI tumour cell line growth inhibition, 48 h
PC-3 prostate = test system: PC-3 prostate
SK-OV-3 ovarian = test system: SK-OV-3 ovarian
IGROV1 ovarian = test system: IGROV1 ovarian
SK-MEL-28 melanoma = test system: SK-MEL-28 melanoma
A549 NSCLC = test system: A549 NSCLC
HCT-15 colon = test system: HCT-15 colon
KM12 colon = test system: KM12 colon
UACC-62 melanoma = test system: UACC-62 melanoma
HCT-116 colon = test system: HCT-116 colon
U251 CNS = test system: U251 CNS
CAKI-1 renal = test system: CAKI-1 renal
COLO 205 colon = test system: COLO 205 colon
LOX IMVI melanoma = test system: LOX IMVI melanoma
NCI-H460 lung = test system: NCI-H460 lung
HOP-62 NSCLC = test system: HOP-62 NSCLC
T-47D breast = test system: T-47D breast
SN12C renal = test system: SN12C renal
OVCAR-4 ovarian = test system: OVCAR-4 ovarian
SW-620 colon = test system: SW-620 colon
MALME-3M melanoma = test system: MALME-3M melanoma
SF-268 CNS = test system: SF-268 CNS
HL-60(TB) leukemia = test system: HL-60(TB) leukemia
SNB-75 CNS = test system: SNB-75 CNS
MDA-MB-231 breast = test system: MDA-MB-231 breast
M14 melanoma = test system: M14 melanoma
SR leukemia = test system: SR leukemia
K-562 leukemia = test system: K-562 leukemia
TK-10 renal = test system: TK-10 renal
MDA-MB-435 = test system: MDA-MB-435

In the case of `CC/C(=C(/c1ccc(O)cc1)c1ccc(OCCN)cc1)c1ccccc1`, the GI50 (PC-3 prostate) was 2660 nM, the TGI (PC-3 prostate) was 8.26 µM and the GI50 (SK-OV-3 ovarian) was 5.06 µM. For the same molecule, the TGI (SK-OV-3 ovarian) was 18 µM, the GI50 (IGROV1 ovarian) was 4.62 µM and the TGI (IGROV1 ovarian) was 15.5 µM. It also gave a GI50 (SK-MEL-28 melanoma) of 1750 nM, a TGI (SK-MEL-28 melanoma) of 3.38 µM and a GI50 (A549 NSCLC) of 2970 nM. For the same molecule, the TGI (A549 NSCLC) was 8.81 µM, the GI50 (HCT-15 colon) was 1910 nM and the TGI (HCT-15 colon) was 4.06 µM. For the same molecule, the GI50 (KM12 colon) was 1970 nM, the TGI (KM12 colon) was 3.9 µM and the GI50 (UACC-62 melanoma) was 2440 nM. It also gave a TGI (UACC-62 melanoma) of 7.43 µM, a GI50 (HCT-116 colon) of 1910 nM and a TGI (HCT-116 colon) of 4.08 µM. It also gave a GI50 (U251 CNS) of 1820 nM, a TGI (U251 CNS) of 3.86 µM and a GI50 (CAKI-1 renal) of 1640 nM. The TGI (CAKI-1 renal) was 4.18 µM, the GI50 (COLO 205 colon) was 1950 nM and the TGI (COLO 205 colon) was 3.75 µM. The GI50 (LOX IMVI melanoma) was 1760 nM, the TGI (LOX IMVI melanoma) was 3.23 µM and the GI50 (NCI-H460 lung) was 1960 nM. For the same molecule, the TGI (NCI-H460 lung) was 3.95 µM, the GI50 (HOP-62 NSCLC) was 3.3 µM and the TGI (HOP-62 NSCLC) was 10.7 µM. It also gave a GI50 (T-47D breast) of 1670 nM, a TGI (T-47D breast) of 5.94 µM and a GI50 (SN12C renal) of 3.02 µM. It also gave a TGI (SN12C renal) of 9.67 µM, a GI50 (OVCAR-4 ovarian) of 2880 nM and a TGI (OVCAR-4 ovarian) of 16 µM. It also gave a GI50 (SW-620 colon) of 1870 nM, a TGI (SW-620 colon) of 3.91 µM and a GI50 (MALME-3M melanoma) of 1690 nM. For the same molecule, the TGI (MALME-3M melanoma) was 3.53 µM, the GI50 (SF-268 CNS) was 3.09 µM and the TGI (SF-268 CNS) was 9.58 µM. For the same molecule, the GI50 (HL-60(TB) leukemia) was 2180 nM, the TGI (HL-60(TB) leukemia) was 5.36 µM and the GI50 (SNB-75 CNS) was 1860 nM. It also gave a TGI (SNB-75 CNS) of 12.1 µM, a GI50 (MDA-MB-231 breast) of 1980 nM and a TGI (MDA-MB-231 breast) of 5.23 µM. The GI50 (M14 melanoma) was 1810 nM, the TGI (M14 melanoma) was 3.48 µM and the GI50 (SR leukemia) was 1780 nM. The TGI (SR leukemia) was 4.53 µM, the GI50 (K-562 leukemia) was 2030 nM and the TGI (K-562 leukemia) was 4.72 µM. For the same molecule, the GI50 (TK-10 renal) was 4.91 µM, the TGI (TK-10 renal) was 10.2 µM and the GI50 (MDA-MB-435) was 1630 nM.
